Results as given in PubChem BioAssay AID1259407 (Chemical Carcinogenesis Research Information System (CCRIS), 2018).
Activity calls are given as the source filed them. How the calls were made is not given here.

System: CCRIS mutagenicity, Ames/micronucleus/aberration tests
Experiment: CCRIS mutagenicity studies

Measured: mutagenic call

Nc1ccc(-c2ccccc2)cc1
inactive: Test System: AMES SALMONELLA TYPHIMURIUM, Strain/Indicator: TA1535, Metabolic Activation: NONE, Method: STANDARD PLATE inactive; negative | Test System: AMES SALMONELLA TYPHIMURIUM, Strain/Indicator: TA1538, Metabolic Activation: HAMSTER, LIVER, INTACT HEPATOCYTES, Method: PREINCUBATION inactive; negative | Test System: AMES SALMONELLA TYPHIMURIUM, Strain/Indicator: YG1026, Metabolic Activation: TOBACCO TX1 CELLS, Method: PREINCUBATION inactive; negative | Test System: Ames Salmonella Typhimurium, Strain/Indicator: TA102, Metabolic Activation: None, Method: Preincubation inactive; negative | Test System: E. COLI, Strain/Indicator: WP2 UVRA(P), Metabolic Activation: NONE, Method: STANDARD PLATE inactive; negative | Test System: E. COLI, Strain/Indicator: WP2 UVRA, Metabolic Activation: NONE, Method: FLUCTUATION TEST inactive; negative
active: Test System: AMES SALMONELLA TYPHIMURIUM, Strain/Indicator: TA100, Metabolic Activation: TOBACCO CELL-FREE TXIMX, Method: PREINCUBATION active; positive | Test System: AMES SALMONELLA TYPHIMURIUM, Strain/Indicator: TA1537, Metabolic Activation: RAT, LIVER, S-9, AROCLOR 1254, Method: STANDARD PLATE active; positive | Test System: AMES SALMONELLA TYPHIMURIUM, Strain/Indicator: TA1538, Metabolic Activation: GUINEA PIG, LIVER, INTACT HEPATOCYTES, Method: PREINCUBATION active; positive | Test System: AMES SALMONELLA TYPHIMURIUM, Strain/Indicator: TA1538, Metabolic Activation: GUINEA PIG, LIVER, S-9, ACETYL COENZYME A, Method: PREINCUBATION active; positive | Test System: AMES SALMONELLA TYPHIMURIUM, Strain/Indicator: TA1538, Metabolic Activation: GUINEA PIG, LIVER, S-9, Method: PREINCUBATION active; positive | Test System: AMES SALMONELLA TYPHIMURIUM, Strain/Indicator: TA1538, Metabolic Activation: HAMSTER, LIVER, S-9, ACETYL COENZYME A, Method: PREINCUBATION active; positive | Test System: AMES SALMONELLA TYPHIMURIUM, Strain/Indicator: TA1538, Metabolic Activation: HAMSTER, LIVER, S-9, Method: PREINCUBATION active; positive | Test System: AMES SALMONELLA TYPHIMURIUM, Strain/Indicator: TA1538, Metabolic Activation: RAT, LIVER, INTACT HEPATOCYTES, Method: PREINCUBATION active; positive | Test System: AMES SALMONELLA TYPHIMURIUM, Strain/Indicator: TA1538, Metabolic Activation: RAT, LIVER, S-9, ACETYL COENZYME A, Method: PREINCUBATION active; positive | Test System: AMES SALMONELLA TYPHIMURIUM, Strain/Indicator: TA1538, Metabolic Activation: RAT, LIVER, S-9, AROCLOR 1254, Method: STANDARD PLATE active; positive | Test System: AMES SALMONELLA TYPHIMURIUM, Strain/Indicator: TA1538, Metabolic Activation: RAT, LIVER, S-9, KC500 OR PHENOBARBITAL, Method: LIQUID SUSPENSION active; positive | Test System: AMES SALMONELLA TYPHIMURIUM, Strain/Indicator: TA1538, Metabolic Activation: RAT, LIVER, S-9, PHENOBARBITAL, Method: STANDARD PLATE active; positive | Test System: AMES SALMONELLA TYPHIMURIUM, Strain/Indicator: TA1538, Metabolic Activation: RAT, LIVER, S-9, Method: PREINCUBATION active; positive | Test System: AMES SALMONELLA TYPHIMURIUM, Strain/Indicator: YG1021, Metabolic Activation: TOBACCO CELL-FREE TXIMX, Method: PREINCUBATION active; positive | Test System: AMES SALMONELLA TYPHIMURIUM, Strain/Indicator: YG1021, Metabolic Activation: TOBACCO TX1 CELLS, Method: PREINCUBATION active; positive | Test System: AMES SALMONELLA TYPHIMURIUM, Strain/Indicator: YG1024, Metabolic Activation: HUMAN, UROEPITHELIAL CELL, MICROSOMES, Method: PREINCUBATION active; positive | Test System: AMES SALMONELLA TYPHIMURIUM, Strain/Indicator: YG1024, Metabolic Activation: PLANT CELLS, Method: PREINCUBATION active; positive | Test System: AMES SALMONELLA TYPHIMURIUM, Strain/Indicator: YG1024, Metabolic Activation: TOBACCO CELL-FREE EXTRACT, Method: PREINCUBATION active; positive | Test System: AMES SALMONELLA TYPHIMURIUM, Strain/Indicator: YG1024, Metabolic Activation: TOBACCO CELL-FREE TXIMX, Method: PREINCUBATION active; positive | Test System: AMES SALMONELLA TYPHIMURIUM, Strain/Indicator: YG1024, Metabolic Activation: TOBACCO TX1 CELLS, Method: PREINCUBATION active; positive | Test System: AMES SALMONELLA TYPHIMURIUM, Strain/Indicator: YG1026, Metabolic Activation: TOBACCO CELL-FREE TXIMX, Method: PREINCUBATION active; positive | Test System: AMES SALMONELLA TYPHIMURIUM, Strain/Indicator: YG1029, Metabolic Activation: MOUSE LIVER S-9, AROCLOR 1254, 10%, Method: PREINCUBATION active; positive | Test System: AMES SALMONELLA TYPHIMURIUM, Strain/Indicator: YG1029, Metabolic Activation: RAT LIVER S-9, AROCLOR 1254, 10%, Method: PREINCUBATION active; positive | Test System: AMES SALMONELLA TYPHIMURIUM, Strain/Indicator: YG1029, Metabolic Activation: TOBACCO CELL-FREE EXTRACT, Method: PREINCUBATION active; positive | Test System: AMES SALMONELLA TYPHIMURIUM, Strain/Indicator: YG1029, Metabolic Activation: TOBACCO CELL-FREE TXIMX, Method: PREINCUBATION active; positive | Test System: AMES SALMONELLA TYPHIMURIUM, Strain/Indicator: YG1029, Metabolic Activation: TOBACCO TX1 CELLS, Method: PREINCUBATION active; positive | Test System: Ames Salmonella typhimurium, Strain/Indicator: TA102, Metabolic Activation: Rat, liver, S-9, Aroclor 1254, 4%, Method: Preincubation active; positive | Test System: CHINESE HAMSTER OVARY, Strain/Indicator: CHO-K1-BH4 (HGPRT), Metabolic Activation: RAT, LIVER, S-9, AROCLOR, Method: SUSPENSION/PLATE active; positive | Test System: UDS RODENT HEPATOCYTES, Strain/Indicator: THY INCORP (NON-S-PHASE), Method: AUTORADIOGRAPHY active; positive
